Test [1] addresses ZIPK/DAPK3 (Homo sapiens, UniProt O43293). The test is described as follows: biochemical. Conditions: read-out: % enzyme activity, 1 μM; Run 1, Run 2.
The target of test [2] is RSK3 (Homo sapiens, UniProt Q15349). The following applies: 1 μM; Run 1, Run 2.
Test [3] deals with MLK1/MAP3K9 (Homo sapiens, UniProt P80192). Conditions: 1 μM; Run 1, Run 2.
The target in test [4] is CSK (Homo sapiens, UniProt P41240). Conditions: 1 μM; Run 1, Run 2.
The target in test [5] is PKAcg (Homo sapiens, UniProt P22612). The test is described as follows: biochemical. The following applies: read-out: % enzyme activity, 1 μM; Run 1, Run 2.
Test [6] deals with CAMK1g (Homo sapiens, UniProt Q96NX5). The test is described as follows: biochemical. The following applies: read-out: % enzyme activity, 1 μM; Run 1, Run 2.
CAMK1g, sequence (Q96NX5 whole entry): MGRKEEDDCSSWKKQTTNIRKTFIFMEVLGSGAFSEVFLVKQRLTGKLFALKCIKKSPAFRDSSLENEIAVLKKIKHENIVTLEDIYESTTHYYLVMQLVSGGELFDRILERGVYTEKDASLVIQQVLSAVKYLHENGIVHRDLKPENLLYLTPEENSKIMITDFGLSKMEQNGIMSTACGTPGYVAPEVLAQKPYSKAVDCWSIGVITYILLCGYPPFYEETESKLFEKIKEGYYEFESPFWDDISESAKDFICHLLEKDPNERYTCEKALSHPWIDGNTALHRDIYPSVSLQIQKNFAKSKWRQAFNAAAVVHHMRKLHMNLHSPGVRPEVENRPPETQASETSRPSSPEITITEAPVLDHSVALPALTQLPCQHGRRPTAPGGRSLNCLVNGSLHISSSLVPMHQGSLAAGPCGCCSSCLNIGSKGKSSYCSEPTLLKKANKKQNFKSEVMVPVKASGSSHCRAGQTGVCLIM
Test [7] has as its target RON/MST1R (Homo sapiens, UniProt Q04912). Briefly: biochemical. Conditions: read-out: % enzyme activity, 1 μM; Run 1, Run 2.
For test [8], the target named is T1, IKKa/CHUK (Homo sapiens, UniProt O15111).
T1 sequence (O15111 1-745): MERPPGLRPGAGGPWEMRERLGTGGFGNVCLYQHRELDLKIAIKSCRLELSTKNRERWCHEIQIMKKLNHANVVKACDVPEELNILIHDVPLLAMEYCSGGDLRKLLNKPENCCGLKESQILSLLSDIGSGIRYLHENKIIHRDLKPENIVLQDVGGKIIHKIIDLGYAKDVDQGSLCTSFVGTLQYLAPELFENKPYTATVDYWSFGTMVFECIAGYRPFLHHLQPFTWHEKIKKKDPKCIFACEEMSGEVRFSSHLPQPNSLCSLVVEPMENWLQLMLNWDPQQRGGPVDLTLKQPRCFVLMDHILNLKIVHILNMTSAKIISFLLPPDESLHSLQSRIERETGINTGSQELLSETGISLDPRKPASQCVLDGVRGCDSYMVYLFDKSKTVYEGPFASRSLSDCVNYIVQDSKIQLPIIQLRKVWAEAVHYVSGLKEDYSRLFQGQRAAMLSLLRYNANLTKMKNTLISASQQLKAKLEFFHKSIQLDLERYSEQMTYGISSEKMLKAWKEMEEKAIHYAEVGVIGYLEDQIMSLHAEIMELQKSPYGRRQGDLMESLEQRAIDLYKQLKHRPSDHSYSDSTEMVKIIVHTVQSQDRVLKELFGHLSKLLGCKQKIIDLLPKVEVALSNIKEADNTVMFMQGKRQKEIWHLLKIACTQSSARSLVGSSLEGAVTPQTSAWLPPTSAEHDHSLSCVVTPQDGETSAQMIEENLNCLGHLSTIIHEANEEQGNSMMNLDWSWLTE
Conditions: 1 μM; Run 1, Run 2.

Test [9] concerns the target JNK1 (Homo sapiens, UniProt P45983). Briefly: biochemical. The following applies: read-out: % enzyme activity, 1 μM; Run 1, Run 2.
The target of test [10] is FGFR2 (Homo sapiens, UniProt P21802). The test is described as follows: biochemical. Conditions: read-out: % enzyme activity, 1 μM; Run 1, Run 2.
The target in test [11] is T2, HGK/MAP4K4 (Homo sapiens, UniProt O95819).
T2 construct: purchased Reaction Biology Corporation
T2 sequence (O95819 whole entry): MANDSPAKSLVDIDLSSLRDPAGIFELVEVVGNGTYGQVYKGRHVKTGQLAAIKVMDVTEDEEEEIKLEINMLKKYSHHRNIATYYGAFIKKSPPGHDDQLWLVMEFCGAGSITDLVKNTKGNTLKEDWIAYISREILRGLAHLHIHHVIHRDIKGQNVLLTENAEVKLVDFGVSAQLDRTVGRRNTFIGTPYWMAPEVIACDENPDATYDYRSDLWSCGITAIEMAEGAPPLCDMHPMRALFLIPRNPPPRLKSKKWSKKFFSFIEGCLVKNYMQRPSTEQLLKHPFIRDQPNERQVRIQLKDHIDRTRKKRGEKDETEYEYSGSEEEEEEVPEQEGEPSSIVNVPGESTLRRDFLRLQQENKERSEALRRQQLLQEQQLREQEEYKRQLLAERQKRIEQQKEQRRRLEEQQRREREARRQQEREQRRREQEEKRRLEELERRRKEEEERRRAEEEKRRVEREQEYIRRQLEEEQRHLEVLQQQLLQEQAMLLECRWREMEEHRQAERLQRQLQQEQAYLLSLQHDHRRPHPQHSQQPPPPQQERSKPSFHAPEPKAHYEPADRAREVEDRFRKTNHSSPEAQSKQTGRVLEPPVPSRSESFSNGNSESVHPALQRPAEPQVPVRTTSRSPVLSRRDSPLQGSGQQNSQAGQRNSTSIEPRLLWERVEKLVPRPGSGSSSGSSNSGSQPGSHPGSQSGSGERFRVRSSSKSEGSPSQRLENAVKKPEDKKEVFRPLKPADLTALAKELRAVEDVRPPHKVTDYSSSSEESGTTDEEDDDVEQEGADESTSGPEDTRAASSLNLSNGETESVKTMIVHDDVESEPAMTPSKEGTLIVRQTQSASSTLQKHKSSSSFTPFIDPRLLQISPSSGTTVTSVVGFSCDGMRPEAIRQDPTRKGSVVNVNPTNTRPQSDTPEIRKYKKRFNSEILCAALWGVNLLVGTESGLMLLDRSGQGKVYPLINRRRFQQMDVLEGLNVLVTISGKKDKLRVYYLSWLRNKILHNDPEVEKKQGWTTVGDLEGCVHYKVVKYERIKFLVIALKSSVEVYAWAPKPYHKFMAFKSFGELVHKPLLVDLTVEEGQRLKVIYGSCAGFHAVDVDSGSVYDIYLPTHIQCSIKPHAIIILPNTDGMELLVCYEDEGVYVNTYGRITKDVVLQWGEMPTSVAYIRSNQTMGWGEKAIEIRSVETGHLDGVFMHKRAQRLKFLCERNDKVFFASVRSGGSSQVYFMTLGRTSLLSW
Briefly: 375-member kinase panel. It counts as biochemical. The following applies: Run 1, Run 2; for % enzyme activity: 1 μM; for remaining activity at 1 µM: read-out: % enzyme activity, 1 μM.

For test [12], the target named is CAMK2a (Homo sapiens, UniProt Q9UQM7). The test is described as follows: biochemical. The following applies: read-out: % enzyme activity, 1 μM; Run 1, Run 2.
Test [13] concerns the target SRPK2 (Homo sapiens, UniProt P78362). The following applies: 1 μM; Run 1, Run 2.
For test [14], the target named is CDK6/cyclin D1 (Homo sapiens, UniProt Q00534). The test is described as follows: biochemical. The following applies: read-out: % enzyme activity, 1 μM; Run 1, Run 2.
CDK6/cyclin D1, sequence (Q00534 whole entry): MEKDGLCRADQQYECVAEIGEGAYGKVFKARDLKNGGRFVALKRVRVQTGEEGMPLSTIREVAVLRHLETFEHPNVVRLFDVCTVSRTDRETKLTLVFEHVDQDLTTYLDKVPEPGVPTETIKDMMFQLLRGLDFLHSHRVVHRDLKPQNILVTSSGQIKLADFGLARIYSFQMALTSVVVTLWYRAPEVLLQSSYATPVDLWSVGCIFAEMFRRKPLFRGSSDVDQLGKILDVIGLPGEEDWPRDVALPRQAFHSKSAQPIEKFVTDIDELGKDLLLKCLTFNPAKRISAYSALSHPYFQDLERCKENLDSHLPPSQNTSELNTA
CDK6/cyclin D1, sequence (P24385 whole entry partner): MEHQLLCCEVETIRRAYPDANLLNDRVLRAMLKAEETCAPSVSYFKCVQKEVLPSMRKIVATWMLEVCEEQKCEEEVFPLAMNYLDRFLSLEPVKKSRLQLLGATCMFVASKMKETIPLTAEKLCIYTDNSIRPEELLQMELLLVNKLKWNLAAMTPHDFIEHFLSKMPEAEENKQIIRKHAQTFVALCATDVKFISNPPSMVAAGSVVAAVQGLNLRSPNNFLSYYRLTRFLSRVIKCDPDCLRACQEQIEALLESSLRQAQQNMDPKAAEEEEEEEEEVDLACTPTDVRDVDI
The target in test [15] is TYK2 (Homo sapiens, UniProt P29597). Briefly: biochemical. The following applies: read-out: % enzyme activity, 1 μM; Run 1, Run 2.
TYK2, sequence (P29597 whole entry, species assumed): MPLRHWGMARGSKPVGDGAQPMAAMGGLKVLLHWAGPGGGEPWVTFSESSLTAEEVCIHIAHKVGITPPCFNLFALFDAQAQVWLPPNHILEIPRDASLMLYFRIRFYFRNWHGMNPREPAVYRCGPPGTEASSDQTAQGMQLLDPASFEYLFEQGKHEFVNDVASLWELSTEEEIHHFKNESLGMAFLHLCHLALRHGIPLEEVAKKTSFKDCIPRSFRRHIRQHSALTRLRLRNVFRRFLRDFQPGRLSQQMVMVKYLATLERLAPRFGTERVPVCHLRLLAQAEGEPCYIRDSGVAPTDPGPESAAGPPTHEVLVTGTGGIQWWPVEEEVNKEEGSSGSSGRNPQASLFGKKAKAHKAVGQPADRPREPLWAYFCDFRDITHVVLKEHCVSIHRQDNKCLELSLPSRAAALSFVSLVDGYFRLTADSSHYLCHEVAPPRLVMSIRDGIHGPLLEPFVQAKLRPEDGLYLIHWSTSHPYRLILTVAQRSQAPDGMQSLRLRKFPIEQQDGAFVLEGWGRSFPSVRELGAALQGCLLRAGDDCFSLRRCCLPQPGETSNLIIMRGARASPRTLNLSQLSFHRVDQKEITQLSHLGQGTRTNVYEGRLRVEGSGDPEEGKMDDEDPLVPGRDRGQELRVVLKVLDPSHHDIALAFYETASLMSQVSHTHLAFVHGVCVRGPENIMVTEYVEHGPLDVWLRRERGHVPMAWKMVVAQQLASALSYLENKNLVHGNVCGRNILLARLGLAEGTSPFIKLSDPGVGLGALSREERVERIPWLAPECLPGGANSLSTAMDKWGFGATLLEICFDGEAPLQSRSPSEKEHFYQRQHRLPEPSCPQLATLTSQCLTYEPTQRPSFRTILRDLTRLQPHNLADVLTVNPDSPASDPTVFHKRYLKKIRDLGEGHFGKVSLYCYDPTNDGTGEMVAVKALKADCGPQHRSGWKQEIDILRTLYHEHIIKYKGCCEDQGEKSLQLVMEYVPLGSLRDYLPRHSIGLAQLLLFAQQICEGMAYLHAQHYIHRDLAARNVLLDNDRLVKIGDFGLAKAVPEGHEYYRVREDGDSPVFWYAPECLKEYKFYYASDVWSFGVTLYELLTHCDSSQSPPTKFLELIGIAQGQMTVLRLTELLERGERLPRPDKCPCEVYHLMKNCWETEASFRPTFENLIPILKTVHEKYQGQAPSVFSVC
In test [16] the target is T3, SNARK/NUAK2 (Homo sapiens, UniProt Q9H093).
T3 sequence (Q9H093 1-628): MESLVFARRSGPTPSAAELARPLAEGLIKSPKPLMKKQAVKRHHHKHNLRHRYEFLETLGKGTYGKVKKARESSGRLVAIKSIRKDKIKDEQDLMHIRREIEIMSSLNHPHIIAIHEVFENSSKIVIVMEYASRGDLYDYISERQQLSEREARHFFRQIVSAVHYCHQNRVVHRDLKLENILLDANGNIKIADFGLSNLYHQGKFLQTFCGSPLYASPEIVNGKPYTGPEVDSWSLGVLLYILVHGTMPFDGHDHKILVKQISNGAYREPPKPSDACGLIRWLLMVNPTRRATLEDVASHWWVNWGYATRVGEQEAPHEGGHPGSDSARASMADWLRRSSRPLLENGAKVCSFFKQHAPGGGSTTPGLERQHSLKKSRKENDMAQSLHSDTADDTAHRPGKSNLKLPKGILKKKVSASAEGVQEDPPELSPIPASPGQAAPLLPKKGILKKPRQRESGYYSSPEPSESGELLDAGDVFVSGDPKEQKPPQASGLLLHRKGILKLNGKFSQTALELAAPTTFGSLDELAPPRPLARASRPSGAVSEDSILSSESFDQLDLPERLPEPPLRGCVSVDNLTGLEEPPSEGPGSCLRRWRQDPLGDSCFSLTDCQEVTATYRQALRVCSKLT
Conditions: 1 μM; Run 1, Run 2.

The target in test [17] is PASK (Homo sapiens, UniProt Q96RG2). The test is described as follows: biochemical. Conditions: read-out: % enzyme activity, 1 μM; Run 1, Run 2.
Test [18] concerns the target MYO3A (Homo sapiens, UniProt Q8NEV4). Conditions: 1 μM; Run 1, Run 2.
The target in test [19] is CK2a (Homo sapiens, UniProt P68400). Briefly: biochemical. Conditions: read-out: % enzyme activity, 1 μM; Run 1, Run 2.
In test [20] the target is FGFR4 (Homo sapiens, UniProt P22455). Conditions: 1 μM; Run 1, Run 2.
Test [21] has as its target MAST3 (Homo sapiens, UniProt O60307). The test is described as follows: biochemical. Conditions: read-out: % enzyme activity, 1 μM; Run 1, Run 2.

MAST3, sequence (O60307 whole entry): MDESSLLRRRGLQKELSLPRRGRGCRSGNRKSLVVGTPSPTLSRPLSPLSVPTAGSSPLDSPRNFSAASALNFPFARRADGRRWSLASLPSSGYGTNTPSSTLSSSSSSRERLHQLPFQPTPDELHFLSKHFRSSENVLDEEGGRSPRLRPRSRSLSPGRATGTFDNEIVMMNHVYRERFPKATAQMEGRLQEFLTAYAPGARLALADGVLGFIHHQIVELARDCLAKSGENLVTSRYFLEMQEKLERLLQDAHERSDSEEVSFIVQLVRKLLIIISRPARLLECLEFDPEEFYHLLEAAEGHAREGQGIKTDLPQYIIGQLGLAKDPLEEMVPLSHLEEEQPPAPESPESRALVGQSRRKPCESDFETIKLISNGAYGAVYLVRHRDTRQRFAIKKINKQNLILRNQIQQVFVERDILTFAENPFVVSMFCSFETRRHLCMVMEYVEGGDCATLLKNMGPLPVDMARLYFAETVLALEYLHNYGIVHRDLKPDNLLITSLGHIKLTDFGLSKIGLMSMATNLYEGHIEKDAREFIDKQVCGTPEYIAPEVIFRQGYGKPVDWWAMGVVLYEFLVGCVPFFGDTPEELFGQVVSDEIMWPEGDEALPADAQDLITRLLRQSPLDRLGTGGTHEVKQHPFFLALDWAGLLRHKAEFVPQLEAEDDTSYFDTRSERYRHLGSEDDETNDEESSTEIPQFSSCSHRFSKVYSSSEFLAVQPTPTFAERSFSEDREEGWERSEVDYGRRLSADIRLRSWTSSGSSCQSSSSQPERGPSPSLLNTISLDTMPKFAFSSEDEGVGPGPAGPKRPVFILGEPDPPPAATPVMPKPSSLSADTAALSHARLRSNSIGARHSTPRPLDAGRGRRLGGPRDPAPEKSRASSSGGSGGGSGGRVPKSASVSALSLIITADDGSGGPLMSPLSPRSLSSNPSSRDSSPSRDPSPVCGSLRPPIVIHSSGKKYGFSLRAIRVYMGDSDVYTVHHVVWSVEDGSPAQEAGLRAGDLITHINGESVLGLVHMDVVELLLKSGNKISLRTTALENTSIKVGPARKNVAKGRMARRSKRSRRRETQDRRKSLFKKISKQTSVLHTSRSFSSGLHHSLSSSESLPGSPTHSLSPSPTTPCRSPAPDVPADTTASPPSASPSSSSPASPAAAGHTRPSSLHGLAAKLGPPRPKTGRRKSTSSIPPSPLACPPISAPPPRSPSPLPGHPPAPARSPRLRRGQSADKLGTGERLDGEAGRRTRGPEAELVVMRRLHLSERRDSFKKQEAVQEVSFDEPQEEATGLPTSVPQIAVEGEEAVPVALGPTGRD

As for `COc1cc(-c2cncc(-c3ccc(N4CCN(C)CC4)cc3)c2C)cc(F)c1C(N)=O` [Compound 26a, 2-Fluoro-6-methoxy-4-(4-methyl-5-(4-(4-methylpiperazin-1-yl)phenyl)pyridin-3-yl)benzamide], the remaining activity at 1 µM in test [1] amounted to 104%; in [5], 94.1%; in [6] it was 102%; in test [7] it was 98.7%; in [9], 90.6%; in test [10], 95.5%. Moreover, the remaining activity at 1 µM in [11] turned out to be 22%; in test [12], 85.5%; in test [14], 100%; in [15], 92.6%; in test [17], 94%; in test [19] it was 92.5%. In addition, the remaining activity at 1 µM in [21] came out at 94.7%. In addition, the “% enzyme activity” value in [2] is recorded as 87.93%; in [3] it was 110.44%; in test [4], 99.36%; in [8], 82.74%; in test [11], 20.97%; in test [13], 94.13%. The figures for the “% enzyme activity” value in test [16], in test [18] and in test [20] were 93.71%, 81.86% and 97.61%, respectively.

Take `COc1cc(-c2cncc(-c3ccc(N4C[C@@H](C)N(C)[C@@H](C)C4)cc3)c2C)cc(F)c1C(N)=O` [Compound 26c, 2-Fluoro-6-methoxy-4-(4-methyl-5-(4-((3R,5S)-3,4,5-trimethylpiperazin-1-yl)phenyl)pyridin-3-yl)benzamide]: the remaining activity at 1 µM in [1] turned out to be 104%; in [5], 101%; in [6] it was 108%; in test [7], 105%; in test [9], 86.9%; in [10], 91.9%. Besides, the remaining activity at 1 µM in test [11] is 30.6%; in test [12], 96.7%; in [14], 95.9%; in test [15], 103%; in test [17] it was 99.2%; in test [19], 87.2%. In addition, the remaining activity at 1 µM in [21] stood at 95.5%. The “% enzyme activity” value in test [2] turned out to be 99.74%; in [3] it was 98.95%; in test [4], 102.04%; in [8], 85.96%; in test [11], 28.35%; in test [13], 115.95%. In addition, the “% enzyme activity” value was 94.38% in [16], 94.68% in [18] and 98.99% in [20].

These data come from article PMC8213057, “Targeting ALK2: An Open Science Approach to Developing Therapeutics for the Treatment of Diffuse Intrinsic Pontine Glioma” (Journal of Medicinal Chemistry, 2020).
